# Test results taken from PubChem BioAssay AID1963978 (Molecular Pharmacology Branch, DTP, NCI, 2024).
# Several values for one entry are separate records, joined by “and”; a condition that tells them apart may be missing. Identical values can stand only once.
# Test system: 616215-338-R-J1-PDC spheroids with HUVEC/MSC, viability
# Assay: Anticancer human tumor 616215-338-R-J1-PDC patient-derived colon adenocarcinoma cell line growth inhibition [PI3K]
# Details: for viability, T/C: stronger effect = lower value
# In short: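 Agents were dosed from a top concentration near clinical Cmax (otherwise 10 microM) in half-log decrements, alone or combined with PI3K inhibitors. The spheroids contain tumor cells plus endothelial (HUVEC) and MSC stroma; viability is measured.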
# [1] = curve of first compound, second compound 0.0316 µM
# [2] = curve of first compound, second compound 0.1 µM
# [3] = curve of first compound, second compound 0.316 µM
# [4] = curve of first compound, second compound 1 µM
# [5] = curve of first compound, second compound 3.16 µM
# [6] = curve of first compound, second compound 10 µM
# [7] = second compound 0.0316 µM, first compound 0.00316 µM
# [8] = second compound 0.0316 µM, first compound 0.01 µM
# [9] = second compound 0.0316 µM, first compound 0.0316 µM
# [10] = second compound 0.0316 µM, first compound 0.1 µM
# [11] = second compound 0.1 µM, first compound 0.00316 µM
# [12] = second compound 0.1 µM, first compound 0.01 µM
# [13] = second compound 0.1 µM, first compound 0.0316 µM
# [14] = second compound 0.1 µM, first compound 0.1 µM
# [15] = second compound 0.316 µM, first compound 0.00316 µM
# [16] = second compound 0.316 µM, first compound 0.01 µM
# [17] = second compound 0.316 µM, first compound 0.0316 µM
# [18] = second compound 0.316 µM, first compound 0.1 µM
# [19] = second compound 1 µM, first compound 0.00316 µM
# [20] = second compound 1 µM, first compound 0.01 µM
# [21] = second compound 1 µM, first compound 0.0316 µM
# [22] = second compound 1 µM, first compound 0.1 µM
# [23] = second compound 3.16 µM, first compound 0.0316 µM
# [24] = second compound 3.16 µM, first compound 0.1 µM
# [25] = second compound 10 µM, first compound 0.0316 µM
# [26] = second compound 10 µM, first compound 0.1 µM
# [27] = curve of first compound, second compound 0.00316 µM
# [28] = curve of first compound, second compound 0.01 µM
# [29] = second compound 0.00316 µM, first compound 0.0316 µM
# [30] = second compound 0.00316 µM, first compound 0.1 µM
# [31] = second compound 0.00316 µM, first compound 0.316 µM
# [32] = second compound 0.00316 µM, first compound 1 µM
# [33] = second compound 0.01 µM, first compound 0.0316 µM
# [34] = second compound 0.01 µM, first compound 0.1 µM
# [35] = second compound 0.01 µM, first compound 0.316 µM
# [36] = second compound 0.01 µM, first compound 1 µM
# [37] = second compound 0.0316 µM, first compound 0.316 µM
# [38] = second compound 0.0316 µM, first compound 1 µM
# [39] = second compound 0.0316 µM, first compound 3.16 µM
# [40] = second compound 0.0316 µM, first compound 10 µM
# [41] = second compound 0.1 µM, first compound 0.316 µM
# [42] = second compound 0.1 µM, first compound 1 µM
# [43] = second compound 0.1 µM, first compound 3.16 µM
# [44] = second compound 0.1 µM, first compound 10 µM
# [45] = second compound 0.316 µM, first compound 0.316 µM
# [46] = second compound 0.316 µM, first compound 1 µM
# [47] = second compound 0.316 µM, first compound 3.16 µM
# [48] = second compound 0.316 µM, first compound 10 µM
# [49] = second compound 1 µM, first compound 0.316 µM
# [50] = second compound 1 µM, first compound 1 µM
# [51] = second compound 1 µM, first compound 3.16 µM
# [52] = second compound 1 µM, first compound 10 µM
# 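Also: spheroids exposed to agents for seven days before the viability read.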
smiles,measurement,setting,value
CC(C)n1nc(-c2ccc3oc(N)nc3c2)c2c(N)ncnc21 + CC(Nc1ncnc2nc[nH]c12)c1cc2cccc(Cl)c2c(=O)n1-c1ccccc1,IC50,[1],> 0.1 µM
same,IC50,[2],> 0.1 µM
same,IC50,[3],> 0.1 µM
same,IC50,[4],> 0.1 µM
same,IC50,[5],> 0.1 µM
same,IC50,[6],> 0.1 µM
same,"viability, T/C","second compound 0.0316 µM, first compound 0.000316 µM",102%
same,"viability, T/C","second compound 0.0316 µM, first compound 0.001 µM",103%
same,"viability, T/C",[7],102%
same,"viability, T/C",[8],124%
same,"viability, T/C",[9],112%
same,"viability, T/C",[10],86.9%
same,"viability, T/C","second compound 0.1 µM, first compound 0.000316 µM",103%
same,"viability, T/C","second compound 0.1 µM, first compound 0.001 µM",121%
same,"viability, T/C",[11],99.8%
same,"viability, T/C",[12],109%
same,"viability, T/C",[13],120%
same,"viability, T/C",[14],88.6%
same,"viability, T/C","second compound 0.316 µM, first compound 0.000316 µM",95.5%
same,"viability, T/C","second compound 0.316 µM, first compound 0.001 µM",92.8%
same,"viability, T/C",[15],118%
same,"viability, T/C",[16],110%
same,"viability, T/C",[17],101%
same,"viability, T/C",[18],77.4%
same,"viability, T/C","second compound 1 µM, first compound 0.000316 µM",94.8%
same,"viability, T/C","second compound 1 µM, first compound 0.001 µM",106%
same,"viability, T/C",[19],99.2%
same,"viability, T/C",[20],118%
same,"viability, T/C",[21],122%
same,"viability, T/C",[22],80.5%
same,"viability, T/C","second compound 3.16 µM, first compound 0.000316 µM",123%
same,"viability, T/C","second compound 3.16 µM, first compound 0.001 µM",103%
same,"viability, T/C","second compound 3.16 µM, first compound 0.00316 µM",111%
same,"viability, T/C","second compound 3.16 µM, first compound 0.01 µM",115%
same,"viability, T/C",[23],128%
same,"viability, T/C",[24],68.5%
same,"viability, T/C","second compound 10 µM, first compound 0.000316 µM",110%
same,"viability, T/C","second compound 10 µM, first compound 0.001 µM",110%
same,"viability, T/C","second compound 10 µM, first compound 0.00316 µM",102%
same,"viability, T/C","second compound 10 µM, first compound 0.01 µM",113%
same,"viability, T/C",[25],112%
same,"viability, T/C",[26],66.8%
CCN1CCN(Cc2ccc(Nc3ncc(F)c(-c4cc(F)c5nc(C)n(C(C)C)c5c4)n3)nc2)CC1,"viability, T/C",compound 0.00316 µM,98.2% [middle of 4 runs]
same,"viability, T/C",compound 0.01 µM,92.2% [middle of 4 runs]
same,"viability, T/C",compound 0.0316 µM,97.4% [middle of 4 runs]
same,"viability, T/C",compound 0.1 µM,114% and 104% (2×) and 116%
same,IC50,curve of compound,> 1 µM
CCCS(=O)(=O)Nc1ccc(F)c(C(=O)c2c[nH]c3ncc(-c4ccc(Cl)cc4)cc23)c1F + CC(Nc1ccc2c(c1)OCCn1cc(N3C(=O)OCC3C(F)F)nc1-2)C(N)=O,IC50,[27],4.92 µM
same,IC50,[28],4.9 µM
same,IC50,[1],4.61 µM
same,IC50,[2],4.47 µM
same,IC50,[3],4.68 µM
same,IC50,[4],3.81 µM
same,"viability, T/C",[29],91.3%
same,"viability, T/C",[30],92.7%
same,"viability, T/C",[31],90.8%
same,"viability, T/C",[32],88.8%
same,"viability, T/C","second compound 0.00316 µM, first compound 3.16 µM",79.9%
same,"viability, T/C","second compound 0.00316 µM, first compound 10 µM",2.03%
same,"viability, T/C",[33],97.9%
same,"viability, T/C",[34],93.1%
same,"viability, T/C",[35],92.2%
same,"viability, T/C",[36],92.9%
same,"viability, T/C","second compound 0.01 µM, first compound 3.16 µM",79%
same,"viability, T/C","second compound 0.01 µM, first compound 10 µM",2.65%
same,"viability, T/C",[9],94.6%
same,"viability, T/C",[10],103%
same,"viability, T/C",[37],91.3%
same,"viability, T/C",[38],95.4%
same,"viability, T/C",[39],72.9%
same,"viability, T/C",[40],3.28%
same,"viability, T/C",[13],107%
same,"viability, T/C",[14],98%
same,"viability, T/C",[41],92.7%
same,"viability, T/C",[42],103%
same,"viability, T/C",[43],69.9%
same,"viability, T/C",[44],3.51%
same,"viability, T/C",[17],103%
same,"viability, T/C",[18],103%
same,"viability, T/C",[45],109%
same,"viability, T/C",[46],102%
same,"viability, T/C",[47],73.3%
same,"viability, T/C",[48],4.84%
same,"viability, T/C",[21],108%
same,"viability, T/C",[22],98.1%
same,"viability, T/C",[49],106%
same,"viability, T/C",[50],102%
same,"viability, T/C",[51],58.8%
same,"viability, T/C",[52],4.52%
C[C@@H](NC(=O)c1ncnc(N)c1Cl)c1ncc(C(=O)Nc2cc(C(F)(F)F)c(Cl)cn2)s1 + CC(Nc1ncnc2nc[nH]c12)c1cc2cccc(Cl)c2c(=O)n1-c1ccccc1,IC50,[1],> 10 µM
same,IC50,[2],> 10 µM
same,IC50,[3],> 10 µM
same,IC50,[4],> 10 µM
same,IC50,[5],> 10 µM
same,IC50,[6],9.7 µM
same,"viability, T/C",[9],100%
same,"viability, T/C",[10],115%
same,"viability, T/C",[37],105%
same,"viability, T/C",[38],105%
same,"viability, T/C",[39],114%
same,"viability, T/C",[40],88.5%
same,"viability, T/C",[13],99.7%
same,"viability, T/C",[14],101%
same,"viability, T/C",[41],97%
same,"viability, T/C",[42],118%
same,"viability, T/C",[43],105%
same,"viability, T/C",[44],90.5%
same,"viability, T/C",[17],112%
same,"viability, T/C",[18],105%
same,"viability, T/C",[45],101%
same,"viability, T/C",[46],110%
same,"viability, T/C",[47],99%
same,"viability, T/C",[48],74.6%
same,"viability, T/C",[21],104%
same,"viability, T/C",[22],106%
same,"viability, T/C",[49],104%
same,"viability, T/C",[50],96.6%
same,"viability, T/C",[51],113%
same,"viability, T/C",[52],64.8%
same,"viability, T/C",[23],95.9%
same,"viability, T/C",[24],103%
same,"viability, T/C","second compound 3.16 µM, first compound 0.316 µM",104%
same,"viability, T/C","second compound 3.16 µM, first compound 1 µM",98.4%
same,"viability, T/C","second compound 3.16 µM, first compound 3.16 µM",99.4%
same,"viability, T/C","second compound 3.16 µM, first compound 10 µM",67.2%
same,"viability, T/C",[25],95.4%
same,"viability, T/C",[26],113%
same,"viability, T/C","second compound 10 µM, first compound 0.316 µM",98.8%
same,"viability, T/C","second compound 10 µM, first compound 1 µM",98.5%
same,"viability, T/C","second compound 10 µM, first compound 3.16 µM",88.5%
same,"viability, T/C","second compound 10 µM, first compound 10 µM",48.4%
CCN1CCN(Cc2ccc(Nc3ncc(F)c(-c4cc(F)c5nc(C)n(C(C)C)c5c4)n3)nc2)CC1 + COc1c(OCCCN2CCOCC2)ccc2c3n(c(=NC(=O)c4cnc(N)nc4)nc12)CCN3,IC50,[27],> 1 µM
same,IC50,[28],> 1 µM
same,IC50,[1],> 1 µM
same,IC50,[2],0.185 µM
same,IC50,[3],< 0.00316 µM
same,IC50,[4],< 0.00316 µM
same,"viability, T/C","second compound 0.00316 µM, first compound 0.00316 µM",80.7%
same,"viability, T/C","second compound 0.00316 µM, first compound 0.01 µM",104%
same,"viability, T/C",[29],100%
same,"viability, T/C",[30],97.3%
same,"viability, T/C",[31],128%
same,"viability, T/C",[32],90.8%
same,"viability, T/C","second compound 0.01 µM, first compound 0.00316 µM",89.5%
same,"viability, T/C","second compound 0.01 µM, first compound 0.01 µM",105%
same,"viability, T/C",[33],104%
same,"viability, T/C",[34],118%
same,"viability, T/C",[35],138%
same,"viability, T/C",[36],87.6%
same,"viability, T/C",[7],108%
same,"viability, T/C",[8],109%
same,"viability, T/C",[9],103%
same,"viability, T/C",[10],106%
same,"viability, T/C",[37],112%
same,"viability, T/C",[38],55.9%
same,"viability, T/C",[11],87.8%
same,"viability, T/C",[12],80.3%
same,"viability, T/C",[13],64.9%
same,"viability, T/C",[14],54.9%
same,"viability, T/C",[41],47.1%
same,"viability, T/C",[42],34.7%
same,"viability, T/C",[15],36.1%
same,"viability, T/C",[16],33.8%
same,"viability, T/C",[17],33%
same,"viability, T/C",[18],40.7%
same,"viability, T/C",[45],33.4%
same,"viability, T/C",[46],32%
same,"viability, T/C",[19],22.3%
same,"viability, T/C",[20],23.4%
same,"viability, T/C",[21],20.6%
same,"viability, T/C",[22],24.6%
same,"viability, T/C",[49],27.2%
same,"viability, T/C",[50],31.1%
